Laboratory results: PubChem BioAssay (NCI)
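Method: 48-hour compound exposure of cells in 96-well plates, five concentrations, linear interpolation of endpoints. GI50 marks 50% less growth. The concentration for full growth arrest is given as TGI.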

Experiments:
Test in all cases: NCI tumour cell line growth inhibition, 48 h
[1] = test system: 786-0 renal
[2] = test system: A549 NSCLC
[3] = test system: CAKI-1 renal
[4] = test system: CCRF-CEM leukemia
[5] = test system: COLO 205 colon
[6] = test system: DU-145 prostate
[7] = test system: EKVX NSCLC
[8] = test system: HCC-2998 colon
[9] = test system: HCT-15 colon
[10] = test system: HL-60(TB) leukemia
[11] = test system: HOP-62 NSCLC
[12] = test system: HT29 colon
[13] = test system: IGROV1 ovarian
[14] = test system: K-562 leukemia
[15] = test system: KM12 colon
[16] = test system: LOX IMVI melanoma
[17] = test system: M14 melanoma
[18] = test system: MALME-3M melanoma
[19] = test system: MCF7 breast
[20] = test system: MDA-MB-231 breast
[21] = test system: MDA-N
[22] = test system: MOLT-4 leukemia
[23] = test system: NCI-H23 lung
[24] = test system: OVCAR-8 ovarian
[25] = test system: PC-3 prostate
[26] = test system: RPMI-8226 leukemia
[27] = test system: RXF 393 renal
[28] = test system: SF-295 CNS
[29] = test system: SK-MEL-28 melanoma
[30] = test system: SK-MEL-5 melanoma
[31] = test system: SK-OV-3 ovarian
[32] = test system: SN12C renal
[33] = test system: SNB-75 CNS
[34] = test system: SR leukemia
[35] = test system: SW-620 colon
[36] = test system: T-47D breast
[37] = test system: TK-10 renal
[38] = test system: UACC-257 melanoma
[39] = test system: UACC-62 melanoma
[40] = test system: A498 renal
[41] = test system: ACHN renal
[42] = test system: BT-549 breast
[43] = test system: HCT-116 colon
[44] = test system: HOP-92 NSCLC
[45] = test system: HS 578T breast
[46] = test system: MDA-MB-435
[47] = test system: NCI-H226 lung
[48] = test system: NCI-H460 lung
[49] = test system: NCI-H522 lung
[50] = test system: NCI/ADR-RES ovarian
[51] = test system: OVCAR-3 ovarian
[52] = test system: OVCAR-4 ovarian
[53] = test system: OVCAR-5 ovarian
[54] = test system: SF-268 CNS
[55] = test system: SF-539 CNS
[56] = test system: SK-MEL-2 melanoma
[57] = test system: SNB-19 CNS
[58] = test system: U251 CNS
[59] = test system: UO-31 renal

With CC(C)(Oc1ccc(C(=O)c2ccc(Cl)cc2)cc1Cl)C(=O)N1CCN(CCO)CC1 the TGI [1] was > 10 µM, the TGI [2] was > 10 µM and the TGI [3] was > 10 µM. The TGI [4] was > 10 µM, the TGI [5] was > 10 µM and the TGI [6] was > 10 µM. For the same molecule, the TGI [7] was > 10 µM, the TGI [8] was > 10 µM and the TGI [9] was > 10 µM. The TGI [10] was > 10 µM, the TGI [11] was > 10 µM and the TGI [12] was > 10 µM. The TGI [13] was > 10 µM, the TGI [14] was > 10 µM and the TGI [15] was > 10 µM. For the same molecule, the TGI [16] was > 10 µM, the TGI [17] was > 10 µM and the TGI [18] was > 10 µM. For the same molecule, the TGI [19] was > 10 µM, the TGI [20] was > 10 µM and the TGI [21] was > 10 µM. For the same molecule, the TGI [22] was > 10 µM, the TGI [23] was > 10 µM and the TGI [24] was > 10 µM. The TGI [25] was > 10 µM, the TGI [26] was > 10 µM and the TGI [27] was > 10 µM. For the same molecule, the TGI [28] was > 10 µM, the TGI [29] was > 10 µM and the TGI [30] was > 10 µM. For the same molecule, the TGI [31] was > 10 µM, the TGI [32] was > 10 µM and the TGI [33] was > 10 µM. For the same molecule, the TGI [34] was > 10 µM, the TGI [35] was > 10 µM and the TGI [36] was > 10 µM. For the same molecule, the TGI [37] was > 10 µM, the TGI [38] was > 10 µM and the TGI [39] was > 10 µM.

With NS(=O)(=O)c1ccc(N=Nc2c(O)[nH]c3ccc(C(=O)NCCc4cnc[nH]4)cc23)cc1 the GI50 [1] was > 25 µM, the TGI [1] was > 25 µM and the GI50 [40] was > 25 µM. The TGI [40] was > 25 µM, the GI50 [2] was > 25 µM and the TGI [2] was > 25 µM. The GI50 [41] was > 25 µM, the TGI [41] was > 25 µM and the GI50 [42] was > 25 µM. For the same molecule, the TGI [42] was > 25 µM, the GI50 [3] was > 25 µM and the TGI [3] was > 25 µM. For the same molecule, the GI50 [4] was > 25 µM, the TGI [4] was > 25 µM and the GI50 [5] was > 25 µM. For the same molecule, the TGI [5] was > 25 µM, the GI50 [6] was > 25 µM and the TGI [6] was > 25 µM. For the same molecule, the GI50 [7] was > 25 µM, the TGI [7] was > 25 µM and the GI50 [8] was > 25 µM. The TGI [8] was > 25 µM, the GI50 [43] was > 25 µM and the TGI [43] was > 25 µM. The GI50 [9] was > 25 µM, the TGI [9] was > 25 µM and the GI50 [10] was > 25 µM. For the same molecule, the TGI [10] was > 25 µM, the GI50 [11] was > 25 µM and the TGI [11] was > 25 µM. The GI50 [44] was > 25 µM, the TGI [44] was > 25 µM and the GI50 [45] was > 25 µM. For the same molecule, the TGI [45] was > 25 µM, the GI50 [12] was > 25 µM and the TGI [12] was > 25 µM. The GI50 [13] was > 25 µM, the TGI [13] was > 25 µM and the GI50 [14] was > 25 µM. For the same molecule, the TGI [14] was > 25 µM, the GI50 [15] was > 25 µM and the TGI [15] was > 25 µM. The GI50 [16] was > 25 µM, the TGI [16] was > 25 µM and the GI50 [17] was > 25 µM. For the same molecule, the TGI [17] was > 25 µM, the GI50 [18] was > 25 µM and the TGI [18] was > 25 µM. For the same molecule, the GI50 [19] was > 25 µM, the TGI [19] was > 25 µM and the GI50 [20] was > 25 µM. For the same molecule, the TGI [20] was > 25 µM, the GI50 [46] was > 25 µM and the TGI [46] was > 25 µM. For the same molecule, the GI50 [22] was > 25 µM, the TGI [22] was > 25 µM and the GI50 [47] was > 25 µM. For the same molecule, the TGI [47] was > 25 µM, the GI50 [23] was > 25 µM and the TGI [23] was > 25 µM. The GI50 [48] was > 25 µM, the TGI [48] was > 25 µM and the GI50 [49] was > 25 µM. For the same molecule, the TGI [49] was > 25 µM, the GI50 [50] was > 25 µM and the TGI [50] was > 25 µM. For the same molecule, the GI50 [51] was > 25 µM, the TGI [51] was > 25 µM and the GI50 [52] was > 25 µM. For the same molecule, the TGI [52] was > 25 µM, the GI50 [53] was > 25 µM and the TGI [53] was > 25 µM. The GI50 [24] was > 25 µM, the TGI [24] was > 25 µM and the GI50 [25] was > 25 µM. The TGI [25] was > 25 µM, the GI50 [26] was > 25 µM and the TGI [26] was > 25 µM. The GI50 [27] was > 25 µM, the TGI [27] was > 25 µM and the GI50 [54] was > 25 µM. The TGI [54] was > 25 µM, the GI50 [28] was > 25 µM and the TGI [28] was > 25 µM. The GI50 [55] was > 25 µM, the TGI [55] was > 25 µM and the GI50 [56] was > 25 µM. The TGI [56] was > 25 µM, the GI50 [29] was > 25 µM and the TGI [29] was > 25 µM. For the same molecule, the GI50 [30] was > 25 µM, the TGI [30] was > 25 µM and the GI50 [31] was > 25 µM. For the same molecule, the TGI [31] was > 25 µM, the GI50 [32] was > 25 µM and the TGI [32] was > 25 µM. The GI50 [57] was > 25 µM, the TGI [57] was > 25 µM and the GI50 [33] was > 25 µM. For the same molecule, the TGI [33] was > 25 µM, the GI50 [34] was > 25 µM and the TGI [34] was > 25 µM. For the same molecule, the GI50 [35] was > 25 µM, the TGI [35] was > 25 µM and the GI50 [36] was > 25 µM. For the same molecule, the TGI [36] was > 25 µM, the GI50 [37] was > 25 µM and the TGI [37] was > 25 µM. The GI50 [58] was > 25 µM, the TGI [58] was > 25 µM and the GI50 [38] was > 25 µM. For the same molecule, the TGI [38] was > 25 µM, the GI50 [39] was > 25 µM and the TGI [39] was > 25 µM. For the same molecule, the GI50 [59] was > 25 µM and the TGI [59] was > 25 µM.
